Measured values as given in patent US20260014147A1, “STAT6 DEGRADERS” (Gilead Sciences, Inc., priority 2024, published 2026).

What was measured:
[1] = target: T1, human STAT6 (truncated, aa122-658, with N-terminal His-tag) (Homo sapiens, UniProt P42226); assay: Surface Plasmon Resonance (SPR) assay: binding of compounds to immobilized human STAT6; settings: immobilized human STAT6 (aa122-658), 25° C.; geometric mean
T1 construct: Human STAT6 (truncated, aa122-658, with N-terminal His-tag, expressed in insect cells); His-tag (N); made in house; host or cells: insect cells
T1 sequence (P42226 122-658): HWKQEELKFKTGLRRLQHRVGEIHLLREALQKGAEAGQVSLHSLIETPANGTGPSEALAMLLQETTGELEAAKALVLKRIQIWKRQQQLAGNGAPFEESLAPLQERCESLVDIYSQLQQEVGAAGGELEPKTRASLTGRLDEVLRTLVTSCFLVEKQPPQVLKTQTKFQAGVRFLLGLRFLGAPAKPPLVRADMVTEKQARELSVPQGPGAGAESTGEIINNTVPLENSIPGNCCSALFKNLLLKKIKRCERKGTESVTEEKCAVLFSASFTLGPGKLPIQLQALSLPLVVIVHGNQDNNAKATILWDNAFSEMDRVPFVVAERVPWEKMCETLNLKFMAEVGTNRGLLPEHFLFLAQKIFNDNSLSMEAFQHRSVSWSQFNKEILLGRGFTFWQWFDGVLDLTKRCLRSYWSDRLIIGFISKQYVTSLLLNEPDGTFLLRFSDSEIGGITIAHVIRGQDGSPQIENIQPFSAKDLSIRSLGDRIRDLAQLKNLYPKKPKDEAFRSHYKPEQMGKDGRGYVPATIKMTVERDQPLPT
Description: SPR was used to confirm and quantify binding of compounds to human STAT6. Biacore instruments from the 8K-series (Cytiva) were used, and measurements were performed at 25° C. Human STAT6 (truncated, aa122-658, with N-terminal His-tag, expressed in insect cells) was immobilized in the active flow cells on a CM5 chip using amine-coupling (default settings) at 10 μg/ml in 10 mM acetate buffer pH 5.5, at a contact time of 120-420 sec. and a flow rate of […]. Reference flow cells were deactivated using blank immobilization. PBS-P+ (Cytiva) supplemented with 2% DMSO was used as running buffer, and solvent correction was applied. Compounds were tested by multi-cycle kinetics injections using a contact time of 60 sec., dissociation time of up to 300 sec., and a flow rate of […].
Solvent-corrected, reference-subtracted and blank-corrected data was processed and binding isotherms were fitted according to a single report point from each sensorgram (Standard: Late binding (5 sec. before injection end); alternative: Earlier report point according to binding profile). Data fitting was done both with unfixed Rmax and with Rmax fixed to the theoretical value* assuming 1:1 binding to allow processing of data from both weak and strong binders as well as to evaluate binding stoichiometry.
Positive controls were run at the beginning, during, and at the end of the screen to evaluate surface activity. Generally surface activity was only affected to a minor degree, and no corrections were applied.
*Equation for calculation of the theoretical Rmax (Theoretical Rmax=(MW Analyte/MW Ligand) x immobilization level).
The sensorgrams for Examples 2a1, 2t1, 2m1, and 2a2 are shown below (where RU is plotted vs. time in seconds; dotted lines/points were excluded from the analysis due to effects from non-specific binding).

[2] = target: T2, STAT6 (endogenous, HiBiT-tagged) in HeLa LgBiT clone 4.14 cells (Homo sapiens, UniProt P42226); assay: STAT6 Degrader Assay (HiBiT based, HeLa LgBiT clone 4.14 cells, luminescence, DC50); format: cell-based; settings: geometric mean; for DC50: DC50 provided for test compounds with >80% Emax, read-out: STAT6 degradation DC50; for Emax: Emax provided for test compounds with <80% Emax (and 2c15), read-out: STAT6 degradation Emax
T2 construct: These cells express endogenous STAT6; host or cells: HeLa LgBiT clone 4.14
T2 sequence (P42226 1-847): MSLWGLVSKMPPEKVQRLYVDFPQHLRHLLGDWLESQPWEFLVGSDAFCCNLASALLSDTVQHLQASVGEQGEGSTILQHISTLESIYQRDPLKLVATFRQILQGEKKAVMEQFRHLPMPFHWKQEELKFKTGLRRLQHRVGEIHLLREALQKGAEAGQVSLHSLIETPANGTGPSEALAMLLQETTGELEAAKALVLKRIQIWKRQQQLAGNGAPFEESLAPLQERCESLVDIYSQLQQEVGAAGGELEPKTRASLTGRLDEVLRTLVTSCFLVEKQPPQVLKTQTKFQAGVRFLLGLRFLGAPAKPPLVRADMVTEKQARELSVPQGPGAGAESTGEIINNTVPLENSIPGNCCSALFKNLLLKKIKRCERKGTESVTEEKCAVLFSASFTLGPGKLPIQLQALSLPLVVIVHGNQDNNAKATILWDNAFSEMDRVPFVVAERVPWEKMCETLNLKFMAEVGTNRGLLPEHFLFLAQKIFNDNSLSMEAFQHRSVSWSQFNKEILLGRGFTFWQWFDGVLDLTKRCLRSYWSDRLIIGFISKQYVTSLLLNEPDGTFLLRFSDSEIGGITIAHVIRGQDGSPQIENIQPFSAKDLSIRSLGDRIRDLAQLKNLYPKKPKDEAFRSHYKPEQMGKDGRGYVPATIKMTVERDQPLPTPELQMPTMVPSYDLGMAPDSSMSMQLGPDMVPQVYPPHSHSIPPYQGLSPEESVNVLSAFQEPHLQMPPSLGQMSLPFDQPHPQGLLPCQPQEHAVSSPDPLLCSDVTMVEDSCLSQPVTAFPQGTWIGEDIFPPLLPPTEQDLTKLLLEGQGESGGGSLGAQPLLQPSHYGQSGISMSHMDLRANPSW
In short: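 Remaining STAT6 is read as NanoBiT luminescence after 0.5 h with Nano-Glo, in HeLa LgBiT clone 4.14 cells expressing endogenous HiBiT-tagged STAT6, following 4-24 h compound incubation at 37 °C. Full degradation is set by 50 µM terfenadine, which kills the cells; degradation plotted against log compound concentration.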

[3] = tested on: Eotaxin-3 (CCL26) release in human whole blood stimulated with IL-4; assay: Human Whole Blood Eotaxin-3 Assay (IL-4 stimulated, inhibition of eotaxin-3 release); format: cell-based; settings: Homo sapiens, EC50 provided for test compounds with >80% Emax, geometric mean across assay runs and batches
In short: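 Lithium-heparin human whole blood preincubated 2 h at 37 °C with compounds (4-fold serial dilution, triplicate, 0.5% DMSO final), then stimulated with 400 pM IL-4 for 48 h. Eotaxin-3 (CCL26) in supernatant quantified by MSD immunoassay.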

| Kd [1] | DC50 [2] | Emax [2] | EC50 [3] | Compound |
| --- | --- | --- | --- | --- |
| < 20 nM |  | < 20% |  | Cn1c(CN2CCC(c3ccc(C(=O)N4CCC(CN5CCN(C(=O)c6ccc(NC7CCC(=O)NC7=O)cc6F)CC5)CC4)cc3)CC2)cc2c(-c3ccc4[nH]ncc4c3)ccnc21 (stereo not shown) [Example 2e1, 3-((4-(4-((1-(4-(1-((4-(1H-indazol-5-yl)-1-methyl-1H-pyrrolo[2,3-b]pyridin-2-yl)methyl)-piperidin-4-yl)benzoyl)piperidin-4-yl)methyl)piperazine-1-carbonyl)-3-fluorophenyl)amino)piperidine-2,6-dione] |
| 466 nM |  | 60 to 70% |  | Cn1c(CN2CCC(c3ccc(C(=O)N4CCC(CN5CCC(c6ccc(NC7CCC(=O)NC7=O)cc6F)CC5)CC4)cc3)CC2)cc2c(-c3ccc4[nH]ncc4c3)ccnc21 (stereo not shown) [Example 2m1, 3-((4-(1-((1-(4-(1-((4-(1H-indazol-5-yl)-1-methyl-1H-pyrrolo[2,3-b]pyridin-2-yl)methyl)-piperidin-4-yl)benzoyl)piperidin-4-yl)methyl)piperidin-4-yl)-3-fluorophenyl)amino)piperidine-2,6-dione] |
| 105 nM | 8.1 nM |  |  | Cn1c(CN2CCC(c3ccc(C(=O)N4CCN(C(=O)CN5CCC(c6ccc(OC7CCC(=O)NC7=O)cc6F)CC5)CC4)cc3)CC2)cc2c(-c3ccc4[nH]ncc4c3)ccnc21 (stereo not shown) [Example 2t1, 3-(4-(1-(2-(4-(4-(1-((4-(1H-indazol-5-yl)-1-methyl-1H-pyrrolo[2,3-b]pyridin-2-yl)methyl)-piperidin-4-yl)benzoyl)piperazin-1-yl)-2-oxoethyl)piperidin-4-yl)-3-fluorophenoxy) piperidine-2,6-dione] |
| < 20 nM |  | < 20% |  | Cn1c(CN2CCC(c3ccc(C(=O)N4CCC(CN5CCC(n6ncc7cc(NC8CCC(=O)NC8=O)ccc76)CC5)CC4)cc3)CC2)cc2c(-c3ccc4[nH]ncc4c3)ccnc21 (stereo not shown) [Example 2t4, 3-((1-(1-((1-(4-(1-((4-(1H-indazol-5-yl)-1-methyl-1H-pyrrolo[2,3-b]pyridin-2-yl)methyl)-piperidin-4-yl)benzoyl)piperidin-4-yl)methyl)piperidin-4-yl)-1H-indazol-5-yl)amino)piperidine-2,6-dione] |

Further lines, the compound ahead of its results:

| Compound | Kd [1] | DC50 [2] | Emax [2] | EC50 [3] |
| --- | --- | --- | --- | --- |
| Cn1c(CN2CCC(c3ccc(C(=O)N4CCN(C(=O)CN5CCC(c6ccc(NC7CCC(=O)NC7=O)cc6F)CC5)CC4)cc3)CC2)cc2c(-c3ccc4[nH]ncc4c3)ccnc21 (stereo not shown) [Example 2a1, 3-((4-(1-(2-(4-(4-(1-((4-(1H-indazol-5-yl)-1-methyl-1H-pyrrolo[2,3-b]pyridin-2-yl)methyl)-piperidin-4-yl)benzoyl)piperazin-1-yl)-2-oxoethyl)piperidin-4-yl)-3-fluorophenyl)amino)piperidine-2,6-dione] | 224 nM | 4.9 nM |  |  |
| Cn1c(CN2CCC(c3ccc(C(=O)N4CCN(C(=O)CN5CCN(c6ccc(NC7CCC(=O)NC7=O)cc6F)CC5)CC4)cc3)CC2)cc2c(-c3ccc4[nH]ncc4c3)ccnc21 (stereo not shown) [Example 2a2, 3-((4-(4-(2-(4-(4-(1-((4-(1H-indazol-5-yl)-1-methyl-1H-pyrrolo[2,3-b]pyridin-2-yl)methyl)-piperidin-4-yl)benzoyl)piperazin-1-yl)-2-oxoethyl)piperazin-1-yl)-3-fluorophenyl)amino)piperidine-2,6-dione] | 61.2 nM |  | 60 to 70% |  |
| Cn1c(CN2CCC(c3ccc(C(=O)N4CCC(CN5CCN(c6ccc(NC7CCC(=O)NC7=O)cc6F)CC5)CC4)cc3)CC2)cc2c(-c3ccc4[nH]ncc4c3)ccnc21 (stereo not shown) [Example 2c1, 3-((4-(4-((1-(4-(1-((4-(1H-indazol-5-yl)-1-methyl-1H-pyrrolo[2,3-b]pyridin-2-yl)methyl)-piperidin-4-yl)benzoyl)piperidin-4-yl)methyl)piperazin-1-yl)-3-fluorophenyl)amino)piperidine-2,6-dione] | 193 nM |  | 70 to 80% | 556 nM |
| Cn1c(CN2CCC(c3ccc(C(=O)N4CCC(CN5CCN(c6ccc(NC7CCC(=O)NC7=O)cc6F)CC5)CC4)cc3)CC2)cc2c(-c3cnc(N)c(F)c3)ccnc21 (stereo not shown) [Example 2c3, 3-((4-(4-((1-(4-(1-((4-(6-amino-5-fluoropyridin-3-yl)-1-methyl-1H-pyrrolo[2,3-b]pyridin-2-yl)-methyl)piperidin-4-yl)benzoyl)piperidin-4-yl)methyl)piperazin-1-yl)-3-fluorophenyl)amino)piperidine-2,6-dione] | < 20 nM |  | < 20% |  |
| Cn1c(CN2CCC(c3ccc(C(=O)N4CCC(CN5CCN(c6ccc(NC7CCC(=O)NC7=O)cc6F)CC5)CC4)cc3)CC2)cc2c(-c3ccc(N)nc3C#N)ccnc21 (stereo not shown) [Example 2c8, 6-amino-3-(2-((4-(4-(4-((4-(4-((2,6-dioxopiperidin-3-yl)amino)-2-fluorophenyl)piperazin-1-yl)-methyl)piperidine-1-carbonyl)phenyl)piperidin-1-yl)methyl)-1-methyl-1H-pyrrolo[2,3-b]pyridin-4-yl)-picolinonitrile] | 40 to 50 nM |  | < 20% |  |
